The results in this text go back to patent US20180228853A1 (priority 2015, published 2018).

Where two headings read alike, the source gives them in different places.

The subject of data set [1] is H1N1 virus strain A/PR/8/34. Put plainly: microbe, parasite or virus in culture. It counts as cell-based, Influenza A (H1N1) virus. Particulars: MDCK cells.
The test system of data set [2] is H1N1 virus particles. Put plainly: Direct binding assay to H1N1 virus particles (DART TOF-MS). Also noted: species or system Influenza A (H1N1) virus. As for the experimental part:
Further, direct binding of test biomarkers in HSRx 351 to influenza virus and hemagglutinin were evaluated using the methods described in Roscheck Jr 2009. […] The methodology used is described in Roschek Jr 2009.
Viral Particles—Briefly, H1N1 virus particles were incubated with HSRx 351 or synthetic biomarkers 6 or 7 analog, to allow binding of the compounds within HSRx 351. After incubation, unbound compounds were removed by washing the virus particles three times through a 100 kDa molecular weight cut off membrane filter (Amicon 100 kDa filter, Ultracel PL-100; Millipore Corp. Billerica, Mass.) with phosphate buffered saline (PBS). The virus particles were then collected and fixed in 100% EtOH. The fixed virus particles and the washed fractions containing the unbound chemicals were collected and analyzed directly by DART TOF-MS for comparison.

Data set [3] has as its system influenza or influenza-like illness. Description: Randomized, single-blind clinical study, treatment of influenza or influenza-like illness in combination with Tamiflu. It counts as in vivo, human. As for the experimental part: Subjects were randomized and placed on a treatment regimen of five days. Group C contained 29 subjects that received 75 mg of Tamiflu® (Oseltamivir Phosphate) in capsule form two times a day for five days. Group D contained 29 subjects that received 75 mg of Tamiflu® (Oseltamivir Phosphate) in capsule form and two 175 mg lozenges of HSRx 351 two times a day for 5 days.
Subjects were also instructed to record any adverse events.
Statistical Analysis/Results—A survival analysis was performed to compare over time the Influenza symptom functions of groups C and D. The time dependent event for which survival and hazard functions were calculated was the final data collection visit for each subject. A Generalized Linear Mixed Model was run to test the hypothesis of fewer adverse events in the combination treatment Group D versus Tamiflu® (Oseltamivir phosphate) only treatment groups C. Parameter estimates such as beta weights and R2 were evaluated along with a P value significance level set at 5%.

Data set [4] deals with flu and/or flu like symptoms. Particulars: 10 day regimen, 30 subjects per group.
Where [5] appears, read: preliminary statistical results.
[6] abbreviates: Influenza A virus, read-out: IC50.
Setting [7] is: Influenza A virus, read-out: IC50 (μg/mL).

For the compound 3-Hydroxyflavonone [Biomarker 7 analog], the “IC50 (μg/mL)” value in data set [1] was 2.8 and μg/mL. Also, the IC50 in data set [1] (read-out: IC50) is 8.7 µM. Moreover, in data set [2], the “binding to H1N1 virus particles (enrichment in the fixed virus samples over the washed fractions)” value is “bind H1N1 virus particles”.

For `CCOC(=O)C1=C[C@@H](OC(CC)CC)[C@H](NC(C)=O)[C@@H](N)C1` [Tamiflu ®, Oseltamivir Phosphate], in data set [3] (29 subjects per group), the “Adverse events attributed to study product” value is listed as 4 number of subjects, the “At least one symptom worsened by end of study” value is 6 number of subjects, the “Multiple symptoms worsened by end of study” value is 3 number of subjects and the “Symptoms failed to improve by end of study” value is 2 number of subjects. Further, the “Composite VAS assessment exceeding baseline VAS” value in data set [3] (five day treatment, preliminary results) is listed as “baseline VAS = 126”. For the same compound, in data set [3] (setting [5]), the “% Average Reduction, Aches and pains” value was 64.46%; the “% Average Reduction, Composite” value was 63.83%; the “% Average Reduction, Degree of coughing” value is 67.74%; the “% Average Reduction, Fever reduction” value is given as 85.38%. Besides, in data set [3] (setting [5]), the “% Average Reduction, Frequency of coughing” value was 50.38%; the “% Average Reduction, Mucus discharge in the respiratory tract” value turned out to be 54.63%; the “% Average Reduction, Nasal congestion” value stood at 66.35%; the “% Average Reduction, Quality of sleep” value is 57.89%. Moreover, the “medically related adverse events reported” value in data set [4] is given as “Five”.

Regarding `CCOC(=O)C1=C[C@@H](OC(CC)CC)[C@H](NC(C)=O)[C@@H](N)C1` [Oseltamivir, oseltamivir], the results for the IC50 in data set [1] (setting [6]) and in data set [1] (setting [7]) were 0.32 µM and 0.1 µg/mL, respectively.

Consider `NC12CC3CC(CC(C3)C1)C2` [Amantadine, amantadine], for which the results for the IC50 in data set [1] (setting [6]) and in data set [1] (setting [7]) were 27 µM and 4.1 µg/mL, respectively.
